Experiments:
[1] = biological target: NT-3 growth factor receptor (Homo sapiens, UniProt Q16288); assay: Inhibition of TRKC (unknown origin) using Ser/Thr 06 as peptide substrate incubated for 1 hr in presence of ATP by FRET based Z-LYTE assay
[2] = system: BaF3; assay: Antiproliferative activity against mouse BaF3 cells harbouring CD74-NTRK1 fusion protein incubated for 3 days by CCK8 method; conditions: BaF3, 72 h
[3] = biological target: High affinity nerve growth factor receptor (Homo sapiens, UniProt P04629, G595R); assay: Inhibition of TRKA G595R mutant (unknown origin) expressed in baculovirus expression system Sf9 cells using Ser/Thr 06 as peptide substrate incubated for 1 hr in presence of ATP by FRET based Z-LYTE assay
[4] = biological target: High affinity nerve growth factor receptor (Homo sapiens, UniProt P04629, G667C); assay: Inhibition of TRKA G667C mutant (unknown origin) expressed in baculovirus expression system Sf9 cells using Ser/Thr 06 as peptide substrate incubated for 1 hr in presence of ATP by FRET based Z-LYTE assay
[5] = biological target: High affinity nerve growth factor receptor (Homo sapiens, UniProt P04629); assay: Inhibition of N-terminal hexa his tagged TRKA (485 to 795 residues) (unknown origin) expressed in baculovirus expression system Sf9 cells using Ser/Thr 06 as peptide substrate incubated for 1 hr in presence of ATP by FRET based Z-LYTE assay
[6] = system: BaF3; assay: cells; conditions: Mus musculus, BaF3, 72 h
[7] = system: BaF3; assay: Antiproliferative activity against mouse BaF3 cells harbouring ETV6-NTRK3 fusion protein incubated for 3 days by CCK8 method; conditions: BaF3, 72 h
[8] = system: BaF3; assay: Antiproliferative activity against mouse BaF3 cells harbouring ETV6-TRKC G6968 mutant incubated for 3 days by CCK8 method; conditions: BaF3, 72 h
[9] = system: BaF3; assay: Antiproliferative activity against mouse BaF3 cells harbouring CD74-TRKA G667A mutant incubated for 3 days by CCK8 method; conditions: BaF3, 72 h
[10] = system: BaF3; assay: Antiproliferative activity against mouse BaF3 cells harbouring ETV6-TRKC G623E mutant incubated for 3 days by CCK8 method; conditions: BaF3, 72 h
[11] = system: BaF3; assay: Antiproliferative activity against mouse BaF3 cells harbouring ETV6-TRKB F633L mutant incubated for 3 days by CCK8 method; conditions: BaF3, 72 h
[12] = system: BaF3; assay: Antiproliferative activity against mouse BaF3 cells harbouring CD74-[…] mutant fusion protein incubated for 3 days by CCK8 method; assay type: functional, cell-based; conditions: BaF3, 72 h
[13] = system: BaF3; assay: Antiproliferative activity against mouse BaF3 cells harbouring wild type ETV6-TRKB incubated for 3 days by CCK8 method; conditions: BaF3, 72 h
[14] = system: BaF3; assay: Antiproliferative activity against mouse BaF3 cells harbouring CD74-NTRK1 G595R mutant fusion protein incubated for 3 days by CCK8 method; assay type: functional, cell-based; conditions: BaF3, 72 h
[15] = system: BaF3; assay: Antiproliferative activity against mouse BaF3 cells harbouring ETV6-TRKC V601M mutant incubated for 3 days by CCK8 method; conditions: BaF3, 72 h
[16] = system: BaF3; assay: Antiproliferative activity against mouse BaF3 cells harbouring ETV6-TRKC G696C mutant incubated for 3 days by CCK8 method; conditions: BaF3, 72 h
[17] = system: BaF3; assay: Antiproliferative activity against mouse BaF3 cells harbouring ETV6-TRKC G696A mutant incubated for 3 days by CCK8 method; conditions: BaF3, 72 h
[18] = system: BaF3; assay: Antiproliferative activity against mouse BaF3 cells harbouring ETV6-TRKB G639R mutant incubated for 3 days by CCK8 method; conditions: BaF3, 72 h
[19] = system: BaF3; assay: Antiproliferative activity against mouse BaF3 cells harbouring ETV6-TRKC G623R mutant incubated for 3 days by CCK8 method; conditions: BaF3, 72 h
[20] = system: BaF3; assay: cells; conditions: Mus musculus, BaF3, 72 h; remark: listed apart in the source
[21] = system: BaF3; assay: cells; conditions: Mus musculus, BaF3, 72 h; remark: listed apart in the source
[22] = system: BaF3; assay: Antiproliferative activity against mouse BaF3 cells harbouring ETV6-TRKB G709C mutant incubated for 3 days by CCK8 method; conditions: BaF3, 72 h
[23] = system: BaF3; assay: Antiproliferative activity against mouse BaF3 cells harbouring ETV6-TRKC F617L mutant incubated for 3 days by CCK8 method; conditions: BaF3, 72 h
[24] = system: BaF3; assay: Antiproliferative activity against mouse BaF3 cells harbouring TRKA-F589L fusion protein incubated for 3 days by CCK8 method; conditions: BaF3, 72 h
[25] = system: BaF3; assay: Antiproliferative activity against mouse BaF3 cells harbouring ETV6-TRKB V617M mutant incubated for 3 days by CCK8 method; conditions: BaF3, 72 h
[26] = system: BaF3; assay: Antiproliferative activity against mouse BaF3 cells harbouring CD74-TRKA G6678 mutant incubated for 3 days by CCK8 method; conditions: BaF3, 72 h
[27] = system: BaF3; assay: Antiproliferative activity against mouse BaF3 cells incubated for 3 days by CCK8 method; conditions: BaF3, 72 h

Sequence of NT-3 growth factor receptor (Q16288 whole entry, the tested form may be a part): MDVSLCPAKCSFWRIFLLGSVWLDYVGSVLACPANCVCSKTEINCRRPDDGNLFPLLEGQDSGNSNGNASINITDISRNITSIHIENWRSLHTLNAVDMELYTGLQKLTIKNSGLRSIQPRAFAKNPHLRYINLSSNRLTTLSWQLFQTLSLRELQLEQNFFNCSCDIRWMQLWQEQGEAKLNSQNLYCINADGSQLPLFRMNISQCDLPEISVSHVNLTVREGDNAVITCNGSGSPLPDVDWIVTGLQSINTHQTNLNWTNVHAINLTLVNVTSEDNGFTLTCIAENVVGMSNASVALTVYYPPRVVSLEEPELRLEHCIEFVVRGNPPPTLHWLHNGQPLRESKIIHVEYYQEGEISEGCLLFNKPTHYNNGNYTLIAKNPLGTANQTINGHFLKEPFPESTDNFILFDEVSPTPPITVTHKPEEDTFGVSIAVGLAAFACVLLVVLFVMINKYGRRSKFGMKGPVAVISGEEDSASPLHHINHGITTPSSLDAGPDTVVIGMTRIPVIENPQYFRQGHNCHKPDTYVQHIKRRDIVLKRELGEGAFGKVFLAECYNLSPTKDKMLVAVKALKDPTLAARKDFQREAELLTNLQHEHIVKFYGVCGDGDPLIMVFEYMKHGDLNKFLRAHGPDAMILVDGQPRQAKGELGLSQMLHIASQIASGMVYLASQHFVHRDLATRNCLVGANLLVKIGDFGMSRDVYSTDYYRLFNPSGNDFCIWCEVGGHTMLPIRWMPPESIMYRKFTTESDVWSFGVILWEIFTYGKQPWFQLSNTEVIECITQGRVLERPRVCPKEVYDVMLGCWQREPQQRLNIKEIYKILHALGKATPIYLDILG
Sequence of High affinity nerve growth factor receptor (Homo sapiens, UniProt P04629) (P04629 whole entry, the tested form may be a part): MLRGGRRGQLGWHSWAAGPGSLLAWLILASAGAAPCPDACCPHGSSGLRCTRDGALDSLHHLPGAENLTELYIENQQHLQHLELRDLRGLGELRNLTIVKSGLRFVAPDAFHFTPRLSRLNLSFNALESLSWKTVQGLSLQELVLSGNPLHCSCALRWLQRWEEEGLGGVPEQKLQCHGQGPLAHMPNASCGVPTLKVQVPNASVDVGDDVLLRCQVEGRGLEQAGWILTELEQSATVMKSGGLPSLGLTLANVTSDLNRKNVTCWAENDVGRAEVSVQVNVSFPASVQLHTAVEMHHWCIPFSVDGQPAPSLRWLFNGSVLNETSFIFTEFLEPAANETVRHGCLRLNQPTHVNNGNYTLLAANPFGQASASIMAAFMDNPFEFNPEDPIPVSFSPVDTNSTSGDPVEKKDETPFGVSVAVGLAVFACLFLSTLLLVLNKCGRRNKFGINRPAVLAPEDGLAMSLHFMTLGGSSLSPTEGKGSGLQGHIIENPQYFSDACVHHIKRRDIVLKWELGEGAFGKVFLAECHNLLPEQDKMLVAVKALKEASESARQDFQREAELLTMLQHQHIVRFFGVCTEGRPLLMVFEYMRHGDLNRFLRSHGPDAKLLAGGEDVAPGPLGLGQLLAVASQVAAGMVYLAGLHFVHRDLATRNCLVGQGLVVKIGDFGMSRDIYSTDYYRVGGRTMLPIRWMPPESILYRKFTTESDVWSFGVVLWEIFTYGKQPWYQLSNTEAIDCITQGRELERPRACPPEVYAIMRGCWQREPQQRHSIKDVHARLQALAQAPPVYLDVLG
Sequence of High affinity nerve growth factor receptor (Homo sapiens, UniProt P04629, G667C) (P04629 33-796 G667C limits assumed): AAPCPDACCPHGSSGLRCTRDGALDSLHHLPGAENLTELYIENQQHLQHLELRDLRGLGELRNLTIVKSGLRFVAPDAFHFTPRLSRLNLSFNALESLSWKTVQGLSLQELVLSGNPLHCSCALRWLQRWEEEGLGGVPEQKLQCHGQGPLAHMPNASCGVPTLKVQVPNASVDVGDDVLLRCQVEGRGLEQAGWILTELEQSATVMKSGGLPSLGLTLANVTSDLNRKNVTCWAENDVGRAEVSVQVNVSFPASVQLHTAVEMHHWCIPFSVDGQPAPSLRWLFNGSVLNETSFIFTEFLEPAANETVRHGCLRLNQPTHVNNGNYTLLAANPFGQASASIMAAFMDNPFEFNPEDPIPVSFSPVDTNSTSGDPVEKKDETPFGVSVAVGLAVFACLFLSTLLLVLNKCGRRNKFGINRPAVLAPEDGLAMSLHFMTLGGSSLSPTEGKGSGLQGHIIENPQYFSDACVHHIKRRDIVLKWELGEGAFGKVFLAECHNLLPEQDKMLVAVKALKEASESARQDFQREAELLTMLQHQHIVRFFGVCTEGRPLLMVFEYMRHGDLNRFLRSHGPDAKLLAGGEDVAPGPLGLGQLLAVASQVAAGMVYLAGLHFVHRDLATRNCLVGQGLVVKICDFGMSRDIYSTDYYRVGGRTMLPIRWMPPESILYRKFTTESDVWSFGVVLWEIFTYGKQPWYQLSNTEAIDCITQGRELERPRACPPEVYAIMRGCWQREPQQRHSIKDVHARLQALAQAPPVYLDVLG
Sequence of High affinity nerve growth factor receptor (Homo sapiens, UniProt P04629, G595R) (P04629 33-796 G595R limits assumed): as the sequence (P04629 33-796 G667C limits assumed) above, with G563R, C635G counted along it

Row | SMILES | IC50 [1] | IC50 [2] | IC50 [3] | IC50 [4] | IC50 [5] | IC50 [6] | IC50 [7] | IC50 [14] | other results
1 | Cc1c2cc(cc1NC(=O)Nc1ccc(Cl)c(C(F)(F)F)c1)OCCCCCCCNC(=O)c1ccc3ncc(n3n1)C#C2 | 42.4 nM |  |  |  |  |  |  |  | 
2 | Cc1cn(-c2cc(NC(=O)c3cc4cc(c3C)C#Cc3cnc5ccc(nn35)C(=O)NCCCCCCO4)cc(C(F)(F)F)c2)cn1 | 9.45 nM | 416 nM | 562 nM | 12.2 nM | 51.5 nM | 17.2 nM | 541 nM |  | 
3 | C[C@@H]1CCc2ncc(F)cc2[C@H]2CCCN2c2ccn3ncc(c3n2)C(=O)N1 [SELITRECTINIB] |  | 1.35 nM |  |  |  | 22.2 nM | 1.36 nM | 10.3 nM | IC50 [8]: 11 nM; IC50 [9]: 3.39 nM; IC50 [10]: 7.48 nM; IC50 [11]: 35.8 nM; IC50 [12]: 26.1 nM; IC50 [13]: 2.32 nM; IC50 [15]: 30.7 nM; IC50 [16]: 48.2 nM; IC50 [17]: 4.15 nM; IC50 [18]: 41.1 nM; IC50 [19]: 5.08 nM; IC50 [20]: 423 nM; IC50 [21]: > 1000 nM; IC50 [22]: 42 nM; IC50 [23]: 17.2 nM; IC50 [24]: 31.5 nM; IC50 [25]: 26.4 nM; IC50 [26]: 37 nM; IC50 [27]: > 1000 nM
4 | Cc1c2cc(cc1C(=O)Nc1cc(Cl)cc(C(F)(F)F)c1)OCCCCCCCNC(=O)c1ccc3ncc(n3n1)C#C2 |  |  | > 1000 nM | 8.08 nM | 39.8 nM |  |  |  | 
5 | Cc1cn(-c2cc(NC(=O)c3cc4cc(c3C)C#Cc3cnc5ccc(nn35)NCCN(C)C(=O)CCCCO4)cc(C(F)(F)F)c2)cn1 | 5.95 nM | 33.7 nM | 124 nM | 7.47 nM | 17.4 nM | 5.51 nM | 17.1 nM | 172 nM | 
6 | Cc1cn(-c2cc(NC(=O)c3cc4cc(c3C)C#Cc3cnc5ccc(nn35)NCCNC(=O)CCCCO4)cc(C(F)(F)F)c2)cn1 | 7.06 nM | 271 nM | > 1000 nM | 8.21 nM | 24.8 nM | 40.9 nM | 202 nM | > 1000 nM | 
7 | Cc1cn(-c2cc(NC(=O)c3cc4cc(c3C)C#Cc3cnc5ccc(nn35)NCCC(=O)NCCCCO4)cc(C(F)(F)F)c2)cn1 |  |  | 85.2 nM | 5.29 nM | 21 nM |  |  |  | 
8 | Cc1c2cc(cc1C(=O)Nc1ccc(CN3CCN(C)CC3)c(C(F)(F)F)c1)OCCCCCCCNC(=O)c1ccc3ncc(n3n1)C#C2 | 11.4 nM | 32.1 nM | > 1000 nM | 3.55 nM | 15.1 nM | 2.25 nM | 3030 nM |  | 
9 | Cc1c2cc(cc1C(=O)Nc1cc(N3CCC(N4CCOCC4)CC3)cc(C(F)(F)F)c1)OCCCCCCCNC(=O)c1ccc3ncc(n3n1)C#C2 | 8.51 nM | 51.1 nM | 109 nM | 3.35 nM | 26.1 nM | 3.78 nM | 29.5 nM | 67.7 nM | IC50 [24]: > 1000 nM
